From PubChem BioAssay (NCI)
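Cultured in 96-well plates, cells were exposed to test compound for 48 hours across five concentrations. TGI: concentration producing complete growth inhibition.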

What was measured:
Experiment in all cases: NCI-60 cell line screen, 48 h
XF 498 CNS = system: XF 498 CNS
UACC-257 melanoma = system: UACC-257 melanoma
EKVX NSCLC = system: EKVX NSCLC
UO-31 renal = system: UO-31 renal
M19-MEL melanoma = system: M19-MEL melanoma
UACC-62 melanoma = system: UACC-62 melanoma
K-562 leukemia = system: K-562 leukemia
OVCAR-5 ovarian = system: OVCAR-5 ovarian
COLO 205 colon = system: COLO 205 colon
M14 melanoma = system: M14 melanoma
HT29 colon = system: HT29 colon
HL-60(TB) leukemia = system: HL-60(TB) leukemia
MALME-3M melanoma = system: MALME-3M melanoma
NCI-H522 lung = system: NCI-H522 lung
SNB-75 CNS = system: SNB-75 CNS
HCC-2998 colon = system: HCC-2998 colon
DMS 114 small cell lung = system: DMS 114 small cell lung
OVCAR-8 ovarian = system: OVCAR-8 ovarian
SNB-19 CNS = system: SNB-19 CNS
KM12 colon = system: KM12 colon
RXF-631 renal = system: RXF-631 renal
SNB-78 CNS = system: SNB-78 CNS
ACHN renal = system: ACHN renal
SW-620 colon = system: SW-620 colon
OVCAR-4 ovarian = system: OVCAR-4 ovarian
HCT-15 colon = system: HCT-15 colon
SF-295 CNS = system: SF-295 CNS
LOX IMVI melanoma = system: LOX IMVI melanoma
OVCAR-3 ovarian = system: OVCAR-3 ovarian
U251 CNS = system: U251 CNS
NCI-H460 lung = system: NCI-H460 lung
HCT-116 colon = system: HCT-116 colon
SK-OV-3 ovarian = system: SK-OV-3 ovarian
CCRF-CEM leukemia = system: CCRF-CEM leukemia
A549 NSCLC = system: A549 NSCLC
TK-10 renal = system: TK-10 renal
DLD-1 colon = system: DLD-1 colon
HOP-18 NSCLC = system: HOP-18 NSCLC
A498 renal = system: A498 renal
786-0 renal = system: 786-0 renal
NCI-H23 lung = system: NCI-H23 lung
KM20L2 colon = system: KM20L2 colon
MOLT-4 leukemia = system: MOLT-4 leukemia
SN12C renal = system: SN12C renal
SF-539 CNS = system: SF-539 CNS
RPMI-8226 leukemia = system: RPMI-8226 leukemia
SK-MEL-2 melanoma = system: SK-MEL-2 melanoma
NCI-H226 lung = system: NCI-H226 lung
SF-268 CNS = system: SF-268 CNS
RXF 393 renal = system: RXF 393 renal
HOP-62 NSCLC = system: HOP-62 NSCLC
SK-MEL-28 melanoma = system: SK-MEL-28 melanoma
IGROV1 ovarian = system: IGROV1 ovarian
SK-MEL-5 melanoma = system: SK-MEL-5 melanoma
SR leukemia = system: SR leukemia
DMS 273 small cell lung = system: DMS 273 small cell lung
LXFL 529 NSCLC = system: LXFL 529 NSCLC
CAKI-1 renal = system: CAKI-1 renal
HOP-92 NSCLC = system: HOP-92 NSCLC

Measured: TGI

O=C(CC1(O)C(=O)Nc2ccc([N+](=O)[O-])cc21)c1ccncc1 (centres undefined)
47.9 µM: SW-620 colon
54.7 µM: RXF-631 renal
32.9 µM: UACC-257 melanoma
56.5 µM: HL-60(TB) leukemia
64.4 µM: RXF 393 renal
65 µM: OVCAR-3 ovarian
68.6 µM: RPMI-8226 leukemia
71.5 µM: NCI-H522 lung
98.8 µM: SNB-75 CNS
29.3 µM: LOX IMVI melanoma
82.8 µM: DMS 114 small cell lung
66.2 µM: MALME-3M melanoma
66.1 µM: U251 CNS
75.1 µM: K-562 leukemia
73.1 µM: NCI-H23 lung
40.9 µM: OVCAR-4 ovarian
63.1 µM: M19-MEL melanoma
70.1 µM: MOLT-4 leukemia
34.2 µM: XF 498 CNS
not listed: IGROV1 ovarian | SK-MEL-5 melanoma | SR leukemia | DMS 273 small cell lung | LXFL 529 NSCLC | CAKI-1 renal | HOP-92 NSCLC
> 100 µM: all other assays above

CC(C)c1cccc(C(C)C)c1NC(=O)C(=O)C1CCC2=C(Sc3ccccc3N2)C1=O (centres undefined)
32.5 µM: SW-620 colon
76.7 µM: SF-539 CNS
79.7 µM: COLO 205 colon
not listed: XF 498 CNS | NCI-H522 lung
> 100 µM: all other assays above
